Experiment: xn = mol fraction of the nth substance listed
Details: 100 kPa, Liquid; for viscosity: Concentric cylinders viscometry; for mass density: Vibrating tube method

CCCCOC(C)=O [butyl ethanoate] + CCCCCCO
Details	mass density [kg/m3]	viscosity [mPa·s]
293.15 K, x1 = 0.0811	823.6	4.7
293.15 K, x1 = 0.1602	828.4	4.14
293.15 K, x1 = 0.2398	833.3	3.64
293.15 K, x1 = 0.3507	840.1	3.04
293.15 K, x1 = 0.4402	845.7	2.63
293.15 K, x1 = 0.5596	853.1	2.16
293.15 K, x1 = 0.6504	858.9	1.84
293.15 K, x1 = 0.7398	864.5	1.55
293.15 K, x1 = 0.8507	871.6	1.2
293.15 K, x1 = 0.9397	877.2	0.92
293.15 K, x1 = 1	881.1	0.732
298.15 K, x1 = 0.0811	819.8	3.99
298.15 K, x1 = 0.1602	824.4	3.5
298.15 K, x1 = 0.2398	829.1	3.06
298.15 K, x1 = 0.3507	835.8	2.56
298.15 K, x1 = 0.4402	841.2	2.22
298.15 K, x1 = 0.5596	848.5	1.82
298.15 K, x1 = 0.6504	854	1.56
298.15 K, x1 = 0.7398	859.6	1.32
298.15 K, x1 = 0.8507	866.5	1.05
298.15 K, x1 = 0.9397	872.1	0.83
298.15 K, x1 = 1	876	0.677
303.15 K, x1 = 0.0811	815.9	3.41
303.15 K, x1 = 0.1602	820.3	2.99
303.15 K, x1 = 0.2398	824.8	2.61
303.15 K, x1 = 0.3507	831.2	2.18
303.15 K, x1 = 0.4402	836.5	1.89
303.15 K, x1 = 0.5596	843.6	1.56
303.15 K, x1 = 0.6504	849.1	1.34
303.15 K, x1 = 0.7398	854.5	1.15
303.15 K, x1 = 0.8507	861.3	0.93
303.15 K, x1 = 0.9397	866.9	0.76
303.15 K, x1 = 1	870.9	0.628
308.15 K, x1 = 0.0811	812	2.94
308.15 K, x1 = 0.1602	816.2	2.57
308.15 K, x1 = 0.2398	820.6	2.24
308.15 K, x1 = 0.3507	826.7	1.86
308.15 K, x1 = 0.4402	831.8	1.61
308.15 K, x1 = 0.5596	838.7	1.33
308.15 K, x1 = 0.6504	844	1.16
308.15 K, x1 = 0.7398	849.4	1
308.15 K, x1 = 0.8507	856.2	0.82
308.15 K, x1 = 0.9397	861.7	0.69
308.15 K, x1 = 1	865.7	0.585
313.15 K, x1 = 0.0811	808	2.54
313.15 K, x1 = 0.1602	811.9	2.21
313.15 K, x1 = 0.2398	816	1.93
313.15 K, x1 = 0.3507	821.8	1.61
313.15 K, x1 = 0.4402	826.7	1.41
313.15 K, x1 = 0.5596	833.5	1.18
313.15 K, x1 = 0.6504	838.8	1.04
313.15 K, x1 = 0.7398	844.1	0.92
313.15 K, x1 = 0.8507	850.9	0.76
313.15 K, x1 = 0.9397	856.4	0.63
313.15 K, x1 = 1	860.5	0.546
318.15 K, x1 = 0.0811	804.2	2.21
318.15 K, x1 = 0.1602	807.9	1.92
318.15 K, x1 = 0.2398	811.7	1.68
318.15 K, x1 = 0.3507	817.4	1.4
318.15 K, x1 = 0.4402	822.1	1.23
318.15 K, x1 = 0.5596	828.6	1.05
318.15 K, x1 = 0.6504	833.8	0.93
318.15 K, x1 = 0.7398	839	0.83
318.15 K, x1 = 0.8507	845.7	0.7
318.15 K, x1 = 0.9397	851.2	0.59
318.15 K, x1 = 1	855.3	0.512
323.15 K, x1 = 0.0811	800.1	1.96
323.15 K, x1 = 0.1602	803.5	1.71
323.15 K, x1 = 0.2398	807.2	1.49
323.15 K, x1 = 0.3507	812.5	1.25
323.15 K, x1 = 0.4402	817.1	1.09
323.15 K, x1 = 0.5596	823.5	0.93
323.15 K, x1 = 0.6504	828.6	0.83
323.15 K, x1 = 0.7398	833.8	0.75
323.15 K, x1 = 0.8507	840.4	0.65
323.15 K, x1 = 0.9397	846	0.56
323.15 K, x1 = 1	850.1	0.485

CCCCOC(C)=O [butyl ethanoate] + CCCCCCCCO
Details	mass density [kg/m3]	viscosity [mPa·s]
293.15 K, x1 = 0.0809	828.3	8.07
293.15 K, x1 = 0.1595	831.8	7.17
293.15 K, x1 = 0.2399	835.5	6.32
293.15 K, x1 = 0.3499	840.9	5.29
293.15 K, x1 = 0.4399	845.6	4.54
293.15 K, x1 = 0.5626	852.5	3.59
293.15 K, x1 = 0.6499	857.6	2.97
293.15 K, x1 = 0.7401	863.2	2.37
293.15 K, x1 = 0.8499	870.4	1.69
293.15 K, x1 = 0.9395	876.6	1.12
293.15 K, x1 = 1	881.1	0.732
298.15 K, x1 = 0.0809	824.6	6.69
298.15 K, x1 = 0.1595	827.9	5.9
298.15 K, x1 = 0.2399	831.5	5.19
298.15 K, x1 = 0.3499	836.7	4.32
298.15 K, x1 = 0.4399	841.3	3.7
298.15 K, x1 = 0.5626	847.9	2.93
298.15 K, x1 = 0.6499	853	2.43
298.15 K, x1 = 0.7401	858.4	1.96
298.15 K, x1 = 0.8499	865.5	1.43
298.15 K, x1 = 0.9395	871.6	0.99
298.15 K, x1 = 1	876	0.677
303.15 K, x1 = 0.0809	820.8	5.59
303.15 K, x1 = 0.1595	823.9	4.92
303.15 K, x1 = 0.2399	827.4	4.3
303.15 K, x1 = 0.3499	832.4	3.57
303.15 K, x1 = 0.4399	836.8	3.06
303.15 K, x1 = 0.5626	843.2	2.42
303.15 K, x1 = 0.6499	848.1	2.01
303.15 K, x1 = 0.7401	853.4	1.63
303.15 K, x1 = 0.8499	860.3	1.22
303.15 K, x1 = 0.9395	866.4	0.88
303.15 K, x1 = 1	870.9	0.628
308.15 K, x1 = 0.0809	817.1	4.72
308.15 K, x1 = 0.1595	820.1	4.15
308.15 K, x1 = 0.2399	823.4	3.61
308.15 K, x1 = 0.3499	828.1	2.99
308.15 K, x1 = 0.4399	832.3	2.56
308.15 K, x1 = 0.5626	838.5	2.05
308.15 K, x1 = 0.6499	843.2	1.73
308.15 K, x1 = 0.7401	848.4	1.42
308.15 K, x1 = 0.8499	855.3	1.08
308.15 K, x1 = 0.9395	861.2	0.79
308.15 K, x1 = 1	865.7	0.585
313.15 K, x1 = 0.0809	813.3	4.01
313.15 K, x1 = 0.1595	815.9	3.52
313.15 K, x1 = 0.2399	818.9	3.06
313.15 K, x1 = 0.3499	823.3	2.53
313.15 K, x1 = 0.4399	827.3	2.17
313.15 K, x1 = 0.5626	833.3	1.75
313.15 K, x1 = 0.6499	838	1.48
313.15 K, x1 = 0.7401	843.1	1.24
313.15 K, x1 = 0.8499	849.9	0.95
313.15 K, x1 = 0.9395	855.8	0.71
313.15 K, x1 = 1	860.5	0.546
318.15 K, x1 = 0.0809	809.4	3.44
318.15 K, x1 = 0.1595	811.9	3.01
318.15 K, x1 = 0.2399	814.6	2.62
318.15 K, x1 = 0.3499	818.8	2.17
318.15 K, x1 = 0.4399	822.6	1.87
318.15 K, x1 = 0.5626	828.4	1.51
318.15 K, x1 = 0.6499	832.9	1.3
318.15 K, x1 = 0.7401	838	1.08
318.15 K, x1 = 0.8499	844.7	0.84
318.15 K, x1 = 0.9395	850.7	0.65
318.15 K, x1 = 1	855.3	0.512
323.15 K, x1 = 0.0809	805.6	2.97
323.15 K, x1 = 0.1595	807.8	2.6
323.15 K, x1 = 0.2399	810.4	2.26
323.15 K, x1 = 0.3499	814.3	1.86
323.15 K, x1 = 0.4399	817.9	1.6
323.15 K, x1 = 0.5626	823.5	1.3
323.15 K, x1 = 0.6499	828	1.12
323.15 K, x1 = 0.7401	832.9	0.96
323.15 K, x1 = 0.8499	839.5	0.76
323.15 K, x1 = 0.9395	845.5	0.6
323.15 K, x1 = 1	850.1	0.485

Source: the NIST ThermoML archive (doi:10.1021/acs.jced.8b00524)
